Data from BindingDB's records for patent US12319655 (Deciphera Pharmaceuticals, 2025).
pIC50: −log10 of the molar value.

Assays:
[1] = molecular target: T1, Serine/threonine-protein kinase B-raf [416-766,V600E] (Homo sapiens, UniProt P15056, V600E); assay: Biochemical Assay for B-Raf (V600E) (1)
T1 construct: 416-766
Experimental: Activity of B-Raf (V600E) (SEQ. ID NO: 4) kinase was determined spectroscopically using a coupled pyruvate kinase/lactate dehydrogenase assay that continuously monitors the ATP hydrolysis-dependent oxidation of NADH (e.g., Schindler et al., Science, 2000, 289, 1938-1942). Assays were conducted in 384-well plates (100 μL final volume) using 0.03 nM B-Raf (SignalChem), 1.5 units pyruvate kinase, 2.1 units lactate dehydrogenase, 1 mM phosphoenol pyruvate, 0.28 mM NADH, 30.1 nM MEK (SignalChem), and 1 mM ATP in assay buffer (100 mM Tris, Ph 7.5, 15 mM MgCl2, 0.5 mM DTT, 0.1% octyl-glucoside, 0.002% (w/v) BSA, and 0.002% Triton X-100). Inhibition of B-Raf (V600E) was measured by adding serial diluted test compound (final assay concentration of 1% DMSO). A decrease in absorption at 340 nm was monitored continuously for 6 h at 30° C. on a multi-mode microplate reader (BioTek). The reaction rate was calculated using the 3 to 4 h time frame. The reaction rate at each concentration of compound was converted to percent inhibition using controls (i.e., reaction with no test compound and reaction with a known inhibitor) and IC50 values were calculated by fitting a four-parameter sigmoidal curve to the data using Prism (GraphPad software).

[2] = molecular target: T2, RAF proto-oncogene serine/threonine-protein kinase [306-648,Y340D,Y341D] (Homo sapiens, UniProt P04049, Y340D/Y341D); assay: Biochemical Assay for C-Raf (1)
T2 construct: 306-648
Experimental: (§1) Activity of C-Raf kinase (SEQ. ID NO: 3) was determined spectroscopically using a coupled pyruvate kinase/lactate dehydrogenase assay that continuously monitors the ATP hydrolysis-dependent oxidation of NADH (e.g., Schindler et al., Science, 2000, 289, 1938-1942). Assays were conducted in 384-well plates (100 μL final volume) using 0.43 nM C-Raf (Sigma), 1.5 units pyruvate kinase, 2.1 units lactate dehydrogenase, 1 mM phosphoenol pyruvate, 0.28 mM NADH, 30.1 nM MEK (SignalChem), and 1 mM ATP in assay buffer (100 mM Tris, Ph 7.5, 15 mM MgCl2, 0.5 mM DTT, 0.1% octyl-glucoside, 0.002% (w/v) BSA, and 0.002% Triton X-100). Inhibition of C-Raf was measured by adding serial diluted test compound (final assay concentration of 1% DMSO). A decrease in absorption at 340 nm was monitored continuously for 6 h at 30° C. on a multi-mode microplate reader (BioTek). The reaction rate was calculated using the 4 to 5 h time frame. The reaction rate at each concentration of compound was converted to percent inhibition using controls (i.e., reaction with no test compound and reaction with a known inhibitor) and IC50 values were calculated by fitting a four-parameter sigmoidal curve to the data using Prism (GraphPad software).

[3] = molecular target: T3, Serine/threonine-protein kinase B-raf [416-766] (UniProt P15056); assay: Biochemical Assay for B-Raf (1)
T3 construct: 416-766
Experimental: as §1, with “B-Raf” for “C-Raf”, “2)” for “3)”, “0.13” for “0.43”

T2 sequence (P04049 306-648 Y340D/Y341D): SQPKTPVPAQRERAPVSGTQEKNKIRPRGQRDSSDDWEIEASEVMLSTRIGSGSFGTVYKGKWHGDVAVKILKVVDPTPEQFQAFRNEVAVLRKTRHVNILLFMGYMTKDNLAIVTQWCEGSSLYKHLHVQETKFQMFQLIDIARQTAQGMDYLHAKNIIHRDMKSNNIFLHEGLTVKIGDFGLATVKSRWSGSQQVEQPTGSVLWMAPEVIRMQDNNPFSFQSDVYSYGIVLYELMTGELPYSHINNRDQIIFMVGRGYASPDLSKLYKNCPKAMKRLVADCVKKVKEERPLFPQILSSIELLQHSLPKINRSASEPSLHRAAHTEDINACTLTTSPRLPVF
T1 sequence (P15056 416-766 V600E): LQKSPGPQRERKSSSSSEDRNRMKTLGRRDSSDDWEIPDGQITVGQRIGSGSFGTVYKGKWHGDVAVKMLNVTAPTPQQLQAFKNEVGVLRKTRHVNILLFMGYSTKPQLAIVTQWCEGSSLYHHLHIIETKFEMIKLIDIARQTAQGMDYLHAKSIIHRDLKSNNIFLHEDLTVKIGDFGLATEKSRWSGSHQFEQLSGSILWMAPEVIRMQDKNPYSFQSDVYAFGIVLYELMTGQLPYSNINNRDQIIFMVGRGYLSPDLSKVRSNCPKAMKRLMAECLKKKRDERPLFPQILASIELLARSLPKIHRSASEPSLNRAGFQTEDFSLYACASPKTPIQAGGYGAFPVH
T3 sequence (P15056 416-766): as the sequence (P15056 416-766 V600E) above, with E185V counted along it

| pIC50 [1] | pIC50 [2] | pIC50 [3] | SMILES |
| --- | --- | --- | --- |
| > 7.00 | – | – | Cc1ccc(NC(=O)c2ccnc(C(F)(F)F)c2)cc1-c1cc(-c2ccnc(N)c2)n(C)c(=O)c1 [US12319655, Example 53] |
| – | > 7.00 | > 7.00 | Cc1ccc(NC(=O)c2ccnc(C(C)(C)C#N)c2)cc1-c1ccnc(-c2ccncc2)c1 [US12319655, Example 55] |
| > 7.00 | > 7.00 | – | Cc1ccc(NC(=O)c2ccnc(C(F)(F)F)c2)cc1-c1cccc(-c2ccnc(NC(=O)C3CC3)c2)c1 [US12319655, Example 58] |
| – | > 7.00 | > 7.00 | Cc1ccc(NC(=O)c2cnnc(C3CC3)c2)cc1-c1nccc(-c2ccnc(NC(=O)C3CC3)c2)n1 [US12319655, Example 272] |
